Measurements from publication PMC9958709 (Pharmaceuticals, 2023).

Experiments:
[1] = molecular target: butyrylcholinesterase (BuChE) (Homo sapiens, UniProt P06276); assay: biochemical; assay type: biochemical; conditions: for IC50: read-out: BuChE IC50 (µM ± SEM)
Protocol: (§1) The AChE/(BuChE) inhibitory test was measured using a spectrophotometric method developed by Elman et al.. A buffer solution containing phosphate (pH 8.0) of volume 140 μL; 20 μL of each AChE/BuChE solution; and 20 μL of the test sample were incubated at room temperature for 15 min. […] was used to start the reaction, followed by the addition of DTNB. ATCh or BTCh hydrolyzed the reaction of DTNB with thiocholine for 15 min; unrestricted by AChE and BuChE enzymatic hydrolysis. […] Each sample’s inhibitory activity was measured in terms of IC50 ([…]) or μM. For all substances, the IC50 values were derived using a generic graph.

[2] = molecular target: acetylcholinesterase (AChE) (Homo sapiens, UniProt P22303); assay: biochemical; assay type: biochemical; conditions: for IC50: read-out: AChE IC50 (µM ± SEM)
acetylcholinesterase (AChE), sequence (P22303 32-614, species assumed): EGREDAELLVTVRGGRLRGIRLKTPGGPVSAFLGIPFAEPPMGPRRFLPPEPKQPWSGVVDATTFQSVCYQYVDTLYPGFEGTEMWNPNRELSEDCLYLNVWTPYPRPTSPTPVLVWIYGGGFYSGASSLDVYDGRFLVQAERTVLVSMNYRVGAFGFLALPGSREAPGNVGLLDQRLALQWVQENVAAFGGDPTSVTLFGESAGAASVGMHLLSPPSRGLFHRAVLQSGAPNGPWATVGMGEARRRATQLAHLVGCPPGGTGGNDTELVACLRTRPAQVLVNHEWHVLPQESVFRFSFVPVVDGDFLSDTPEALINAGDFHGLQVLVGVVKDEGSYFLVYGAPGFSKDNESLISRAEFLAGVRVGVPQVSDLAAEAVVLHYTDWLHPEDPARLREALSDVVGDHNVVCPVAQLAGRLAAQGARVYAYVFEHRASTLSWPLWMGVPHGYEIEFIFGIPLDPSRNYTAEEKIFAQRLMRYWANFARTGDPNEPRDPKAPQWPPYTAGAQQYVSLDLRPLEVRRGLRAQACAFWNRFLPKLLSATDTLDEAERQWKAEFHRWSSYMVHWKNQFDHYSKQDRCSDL
Protocol: as §1

butyrylcholinesterase (BuChE), sequence (P06276 29-602): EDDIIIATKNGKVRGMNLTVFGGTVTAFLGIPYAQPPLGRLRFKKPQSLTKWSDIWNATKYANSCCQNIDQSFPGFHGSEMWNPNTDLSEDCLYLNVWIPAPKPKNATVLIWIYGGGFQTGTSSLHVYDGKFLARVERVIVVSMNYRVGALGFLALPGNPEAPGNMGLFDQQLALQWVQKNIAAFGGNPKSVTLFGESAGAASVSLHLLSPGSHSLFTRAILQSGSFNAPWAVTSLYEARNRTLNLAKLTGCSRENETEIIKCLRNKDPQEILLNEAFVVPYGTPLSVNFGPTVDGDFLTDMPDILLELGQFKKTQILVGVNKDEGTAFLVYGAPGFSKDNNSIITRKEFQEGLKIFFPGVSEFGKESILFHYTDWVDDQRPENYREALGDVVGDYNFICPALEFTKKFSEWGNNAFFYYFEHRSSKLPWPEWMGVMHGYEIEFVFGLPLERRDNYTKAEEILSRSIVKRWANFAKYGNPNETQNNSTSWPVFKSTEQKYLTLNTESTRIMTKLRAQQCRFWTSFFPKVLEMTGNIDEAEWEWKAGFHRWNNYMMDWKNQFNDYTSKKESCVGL

SMILES	IC50 [1] [µM]	IC50 [2] [µM]	inhibition of butyrylcholinesterase, in words [1]	inhibition of acetylcholinesterase, in words [2]
COc1ccc2[nH]c(-c3ccc([N+](=O)[O-])cc3)nc2c1 [Compound 1, 5-Methoxy-2-(4-Nitrophenyl)-1H-Benzo[d]-Imidazole]	1.6 ± 0.1	2.1 ± 0.1	–	–
COc1ccc2[nH]c(-c3cccc([N+](=O)[O-])c3)nc2c1 [Compound 2, 5-Methoxy-2-(3-Nitrophenyl)-1H-Benzo[d]-Imidazole]	5.9 ± 0.1	5.1 ± 0.1	–	–
COc1ccc2[nH]c(-c3ccc(Cl)c(Cl)c3)nc2c1 [Compound 3]	0.08 ± 0.001	0.05 ± 0.001	–	–
COc1ccc2[nH]c(-c3ccccc3[N+](=O)[O-])nc2c1 [Compound 4]	3.6 ± 0.1	3.4 ± 0.1	–	–
COc1ccc2[nH]c(-c3ccc4ccccc4c3)nc2c1 [Compound 5]	25.8 ± 0.4	25.3 ± 0.4	–	–
COc1ccc2[nH]c(-c3ccc(C)cc3C)nc2c1 [Compound 6]	5.1 ± 0.2	4.1 ± 0.1	–	–
COc1ccc2[nH]c(-c3ccc(OCc4ccccc4)cc3)nc2c1 [Compound 7]	5.9 ± 0.1	5.8 ± 0.1	–	–
COc1ccc2[nH]c(-c3ccc(N(C)C)cc3)nc2c1 [Compound 8]	4.7 ± 0.1	6.8 ± 0.2	–	–
COc1ccc2[nH]c(-c3ccc(OC)c(O)c3)nc2c1 [Compound 9]	2.1 ± 0.1	2.3 ± 0.1	–	–
COc1ccc2[nH]c(-c3cc(Cl)cc(Cl)c3O)nc2c1 [Compound 10]	0.4 ± 0.001	0.1 ± 0.001	–	–
COc1ccc2[nH]c(-c3ccc(Cl)cc3Cl)nc2c1 [Compound 11]	0.3 ± 0.001	0.2 ± 0.001	–	–
COc1ccc2nc(-c3ccc(-c4nc5ccc(OC)cc5[nH]4)cc3)[nH]c2c1 [Compound 12]	5.8 ± 0.1	5.1 ± 0.1	–	–
COc1ccc2[nH]c(-c3c4ccccc4cc4ccccc34)nc2c1 [Compound 13]	–	–	did not show any activity	did not show any activity
COc1ccc2[nH]c(-c3c(O)ccc4ccccc34)nc2c1 [Compound 14]	–	–	did not show any activity	did not show any activity
COc1ccc2[nH]c(-c3ccc(O)cc3)nc2c1 [Compound 15]	0.9 ± 0.001	0.8 ± 0.001	–	–
COc1ccc2[nH]c(-c3cccc(O)c3)nc2c1 [Compound 16]	2.1 ± 0.1	1.3 ± 0.1	–	–
COc1ccc2[nH]c(-c3cc(Br)ccc3OC)nc2c1 [Compound 17]	3.9 ± 0.1	6.1 ± 0.1	–	–
CCOc1ccc(-c2nc3cc(OC)ccc3[nH]2)cc1OC [Compound 18]	9.8 ± 0.3	11.3 ± 0.3	–	–
COc1ccc(-c2nc3cc(OC)ccc3[nH]2)c(OC)c1 [Compound 19]	6.8 ± 0.2	9.2 ± 0.2	–	–
COc1ccc2[nH]c(-c3cc(OC)c(Br)cc3OC)nc2c1 [Compound 20]	–	–	did not show any activity	did not show any activity
COc1ccc2[nH]c(-c3cc(OC)c(O)c(OC)c3)nc2c1 [Compound 21]	2.7 ± 0.1	2.1 ± 0.1	–	–
